# Patent US9527894B2, “Polymutant tau protein variants and their use for recapitulating human tauopathies” (Universitaet Leipzig, priority 2011, dated 2016)
# Key:
# [1] = system: SH-SY5Y cells; experiment: impedimetric monitoring of differentiated wildtype and poly-mutant tau expressing cells; type: cell-based, human; settings: differentiated 48 h with 20 nM staurosporine, then monitored 24 h; compared to wildtype tau cells
# Procedure: FIG. 5: Differentiation induces neurodegeneration in poly-mutant tau expressing SH-SY5Y cells. Differentiation of SH-SY5Y cells were induced by 48 h incubation with 20 nM staurosporine. Afterwards the cells were impedimetrically monitored for 24 h. […] (n=4, 2D-ANOVA, Bonferoni post-hoc test, *p<0.05, **p<0.01)
# (§1) Human neuroblastoma SH-SY5Y cells were grown in DMEM medium, supplemented with 15% fetal bovine serum (FBS), non-essential amino acids, glutamax and penicillin/streptomycine (Invitrogen). Differentiation of SH-SY5Y cells was induced by incubation of the SH-SY5Y cells with 20 nM stauropsprin (Sigma-Aldrich) for 48 hours. For the appropriate experiments differentiated cells were treated with okadaic acid (Sigma-Aldrich) in a concentration of 25 nM or in case of reference compound testing with SRN-003-556 and AR-A014418, respectively.
# Cells were cultured on self-developed 96-well arrays comprising a gold electrode at the culture surface. The SH-SY5Y cells were differentiated for 48 hours on the 96-well arrays. Impedance spectra were recorded with a self developed multiplexer unit for the 96-well arrays and an impedance Analyser Agilent 4294A (Agilent Technologies) with an alternating voltage of 10 mV with frequencies from 500 Hz to 5 MHz (0 mV bias between electrodes). For each experiment at least five wells were measured in replicate. All impedance magnitude spectra were analysed with a self-developed software IDAT (Impedance Data Analysing Tool). IDAT calculates the impedance of cell-covered electrodes relative to electrodes without cells (relative impedance: (|Z|covered-|Z|cell-free)/|Z|cell-free×100%) and determine the and select the frequency where impedance change caused by the cell layer is maximum (for SH-SY5Y cells on 96-well array at about 100 kHz). […] Experiments were repeated at least three times. […]
# [2] = system: Hyper-tau expressing SH-SY5Y cells; experiment: impedance spectroscopy based functional tau pathology in vitro screening assay (Hyper-tau cells); type: cell-based, human
# Procedure: FIG. 6: Use of Hyper-tau cells for quantitative detection of compound efficiency. Taking the developed Hyper-tau cells, where pathology was induced by differentiation (20 nM staurosporine for 48 h) in comparison to the wildtype tau expressing cells (physiological condition) the efficiency of potential active pharmaceutical ingredients could be quantified.
# Human neuroblastoma SH-SY5Y cells were grown in DMEM medium, supplemented with 15% fetal bovine serum (FBS), non-essential amino acids, glutamax and penicillin/streptomycine (Invitrogen). Differentiation of SH-SY5Y cells was induced by incubation of the SH-SY5Y cells with 20 nM stauropsprin (Sigma-Aldrich) for 48 hours. […]
# Cells were cultured on self-developed 96-well arrays comprising a gold electrode at the culture surface. […] Impedance spectra were recorded with a self developed multiplexer unit for the 96-well arrays and an impedance Analyser Agilent 4294A (Agilent Technologies) with an alternating voltage of 10 mV with frequencies from 500 Hz to 5 MHz (0 mV bias between electrodes). For each experiment at least five wells were measured in replicate. All impedance magnitude spectra were analysed with a self-developed software IDAT (Impedance Data Analysing Tool). […]
# [3] = system: tau hyperphosphorylation; settings: artificial hyperphosphorylation using toxic compounds like okadaic acid; cited from earlier work
# [4] = system: tauopathy mouse model; settings: LeCorre et al. 2006, Selenica et al. 2007; cited from earlier work
# [5] = system: tau mutant expressing SH-SY5Y cells; experiment: impedimetric detection of okadaic acid induced artificial hyperphosphorylation; type: cell-based, human; settings: 25 nM
# Procedure: FIG. 4: Impedimetric detection of consequences by okadaic acid induced artificial hyperphosphorylation. […] (n=3, 2D-ANOVA, Bonferoni post-hoc test, *p<0.05, **p<0.01, ***p<0.001)
# as §1
# Cells were cultured on self-developed 96-well arrays comprising a gold electrode at the culture surface. The SH-SY5Y cells were differentiated for 48 hours on the 96-well arrays. Impedance spectra were recorded with a self developed multiplexer unit for the 96-well arrays and an impedance Analyser Agilent 4294A (Agilent Technologies) with an alternating voltage of 10 mV with frequencies from 500 Hz to 5 MHz (0 mV bias between electrodes). For each experiment at least five wells were measured in replicate. All impedance magnitude spectra were analysed with a self-developed software IDAT (Impedance Data Analysing Tool). […]
# [6] = system: MC1-positive (abnormal conformation) tau in SH-SY5Y cell lines; experiment: Western blot detection of abnormal tau conformation with MC1 antibody; type: cell-based, human; settings: undifferentiated neuroblastoma cell lines
# Excerpt: FIG. 2: Abnormal tau conformation in polymutant tau cell lines. Poly-mutant tau variants were developed and, using those variants, poly-mutant neuroblastoma cell lines were produced. In those cell lines tau adopting an abnormal/pathological conformation under physiological conditions was observed (MC1 abnormal tau). […] Corroborating recent results that phosphorylation may stabilize abnormal conformation the amount of MC1-positive tau species could be decreased by treating the cells with a tau kinase inhibitor (SRN-003-556). […]
# Cells were harvested and protease as well as phosphatase inhibitor cocktail (Sigma-Aldrich) was added. Proteins were extracted by sonification (Hielscher GmbH) and protein concentration was determined using the Roti-Nanoquant Assay (Carl-Roth GmbH). Laemmli sample buffer was added to 60 μg cell lysate. Samples were separated on 10% SDS-polyacrylamide gel and electro transferred onto polyvinylidene fluoride membranes and subsequently immunolabeled with anti-MC1 specific antibody (Peter Davis Department of Pathology, Albert Einstein College of Medicine, 1:100) at 4° C. over night. Secondary antibody was horseradish peroxidase conjugated (Dianova, 1:5000). Specific protein signals were detected using Chemiluminescence Detection Kit (MobiTec) and ChemiDoc-XRS (BioRad). […]
# [7] = system: SH-SY5Y neuroblastoma cell lines; experiment: formation of abnormal tau aggregates after differentiation (EGFP-tau imaging); type: cell-based, human; settings: after induction of differentiation (20 nM staurosporine), without toxic cofactors
# Procedure: FIG. 1: Abnormal tau aggregation in a hyper-mutated tau expressing cell line.
# as §1
molecule,measurement,setting,value
P301L: single mutant tau (P301L),relative impedance of tau variant expressing cells,[1],same impedimetric characteristic like the wildtype tau expressing cells
COc1ccc(CNC(=O)Nc2ncc([N+](=O)[O-])s2)cc1 [AR-A014418],side effects detected by impedimetric monitoring,"[2]; 6 h and 12 h, 0.1 nM-100 nM",toxic effects
same,therapeutic effect on Hyper-tau induced pathology (impedance),"[2]; Hyper-tau cells differentiated with 20 nM staurosporine for 48 h, compared to wildtype tau cells",no therapeutic effect
same,therapeutic effect in okadaic acid based tau pathology in vitro assays,[3],therapeutic effect
same,therapeutic effect in tauopathy mouse model,[4],does not
K257Tq: 4× polymutant tauK257T/P301L/V337M/R406W,relative impedance of tau variant expressing cells,[1],lower impedance values
C=C1[C@@H](O)[C@@H]2O[C@]3(CC[C@H](/C=C/[C@@H](C)[C@@H]4CC(C)=C[C@@]5(O[C@H](C[C@@](C)(O)C(=O)O)CC[C@H]5O)O4)O3)CC[C@H]2O[C@@H]1[C@@H](O)C[C@H](C)[C@H]1O[C@@]2(CCCCO2)CC[C@H]1C [okadaic acid],impedimetric effect of okadaic acid incubation,[5]; 3 h and 6 h,Hyper-tau mutant specific degenerative effect
same,impedimetric effect of okadaic acid incubation,[5]; after 24 h,massive cell damage in all tau mutants
"Hyper-tau: 5× polymutant tauK257T/ΔK280/P301L/V337M/R406W, SEQ ID NO:3",MC1-detected misfolded tau species,[6],"abnormally conformed, misfolded tau species"
same,relative impedance of tau variant expressing cells,[1],still more substantial decrease of relative impedance
same,formation of abnormal tau aggregates,[7],formation of abnormal tau aggregates
